Test results as given in US5731334A, “Method for treating cancer using taxoid onium salt prodrugs” (priority 1995, dated 1998).
“Also recorded” adds a separate entry of the source.

Tests used:
[1] = tested on: SK-N-SH neuroblastoma cells; assay: XTT dye binding cytotoxicity assay, SK-N-SH; assay type: cell-based; conditions: Homo sapiens, 72 h
Experimental: (§1) All cell lines described herein were obtained from the ATCC and maintained in media formulations as recommended by the supplier. The cell lines were tested for mycoplasma contamination prior to incubation at 37° C. in 5% carbon dioxide. Normal human dermal fibroblasts, peripheral blood lymphoblasts and mammary epithelial cells were obtained from Clonogenic Cor., San Diego, Calif. and were maintained under the above incubation conditions in special media provided by the supplier.
(§2) Antiproliferative activities of the onium salts were determined using the XTT dye binding assay. Cells were harvested with trypsin/EDTA (Irvine Scientific), washed, resuspended in the appropriate medium, and counted in a hemocytometer using Trypan Blue to determine viability. Then 10^4 cells/well were added to 96 well microtiter plates and incubated for 24 hours before addition of drug at concentrations in the range of 10^-4 to 10^-13 molar by direct addition from DMSO solutions. After 72 hours, XTT binding dye was added and incubation was continued for 4 hours. The inhibition of cell proliferation was quantified using a Molecular Devices Microplate Reader. The absorbance of XTT was measured at […]. The concentration of drug which inhibited growth of cells by 50% was calculated from duplicated determinations.

[2] = tested on: RPMI-7666 blood lymphoblasts; assay: XTT dye binding cytotoxicity assay, RPMI-7666; assay type: cell-based; conditions: Homo sapiens, 72 h
Experimental: as §1, §2

[3] = tested on: PC-3 prostate carcinoma tumor xenograft; assay: PC-3 prostate tumor xenograft in nude mice
Experimental: Athymic nude mice were purchased from Harlan-Sprague-Dawley. The animals were housed in microisolated cases under positive air pressure and all manipulations and drug treatments were performed in a laminar flow cabinet. Tumor cells were grown under the above tissue culture conditions. Cell suspensions in RPMI medium were injected S./C. Treatment was started one day after inoculation by i.p. injection of 400 μl drug solutions. Tumors were measured 3 times weekly in two dimensions, using calipers and tumor volume as calculated using the formula (V=w^2 ×L×(3.142).
The tumor model was generated from an ATTC PC-3 prostate carcinoma cell line that was maintained under standard cell proliferation conditions, viz. 37° C., 5% carbon dioxide in sterile air. Each cohort was comprised of eight randomly chosen female athymic nude mice, for a total population size of twenty four. Hemocytometer counted cells, suspended in Hanks mediun (Gibco, Grand Island N.Y.) were implanted S.C. (10^6 cells in 0.4 mL per mouse). Solid tumor growth was measured on each third day. Equimolar amounts of the test compounds (1.0 mM, 400 μL) were injected i.p. on days 1, 3, 5, 7, 9, and 11 using the following media:
(.smallcircle.): Control, 5% dextrose in 5× distilled water (5 DW)
(Δ): Taxol (18.0 mg/kg of animal weight or approximately 1.260 mg/m^2) suspended in Cremaphor/D5W
Inferences about efficacy were drawn by ANOVA followed by protected t-test. […] Data shown as mean value with standard error.

intact Molt-4 cells = assay: Competition binding of tritiated compounds to intact Molt-4 cells; set-up: species or system human; conditions: calculated from slopes of linear portions of curves in FIG. 3; read-out: binding constant
Experimental: The competition by nonradioactive taxol or c-2'-MPA-taxol for the binding of 1×10^-9 M tritiated compounds by intact Molt-4 cells is illustrated in FIG. 3. Tritiated taxol (Moravek Corp.) was treated with 2-fluoropyridiunium tosylate according to the method of Nicolaou et al. to yield the C-2'-MPT-^3 H-taxol. (Angew. Chem., Int. Ed. 1994: vol. 34, pp. 1583-1587.) Six well plates were incubated with 10^6 Molt-4 cells in 50 mM phosphate buffered saline (PBS) or PRPMI media to which 10^-9 M of the radiolabeled taxol or taxol onium salt was added together with increasing concentrations of nonradiolabeled compound. After 30 minutes, the cells were centrifuged, washed with PBS and 1% SDS was added. […] Alternatively, the cells may be lysed by sonication.

tubulin = assay: Tubulin polymerization-depolymerization (microtubule assembly-disassembly) assay; assay type: biochemical, calf; conditions: CaCl2; 10^-6 M drug; 37° C.; in words; listed as taxol
[4] = Comparative toxicities (lethality) in mice
NHDF dermal fibroblast = assay: XTT dye binding cytotoxicity assay, NHDF; assay type: cell-based; conditions: Homo sapiens, 72 h
Experimental: as §1, §2

[5] = tested on: SIHA squamous carcinoma cells; assay: XTT dye binding cytotoxicity assay, SIHA; assay type: cell-based; conditions: Homo sapiens, SiHa, 72 h
Experimental: as §1, §2

[6] = In vivo elimination in BALB/C mice; conditions: 24 hours after injection
Experimental: C-2'-MPA-Taxol (1 mM in 0.9% saline solution, 400 μL) was injected along with tritiated taxol at 32000 cpm into normal BALB/C mice (4 mice each) housed in metabolic cages and the urine and feces were measured periodically in a scintillation counter using Achillea scintillation fluid.
The antitumor activity of the onium salts of taxol were assessed in nude mice bearing tumors of human A-549 lung adenocarcinomas, Ovcar-3 ovarian carcinoma, and PC-3 prostate carcinoma cells. […] FIG. 5 illustrates antiproliferation results for 2'-MPA-3-thiophene-taxol (4) and 2' MPA taxol (2) for the Ovcar-3 human tumor xenograft. […] FIG. 6, summarizes the results for a PC-3, prostate tumor model study. Taxol was compared with both the 2'- and 7-substituted oxonium salts. […] Tritiated taxol and 2' MPA-taxol were used in drug elimination experiments in normal BALB/C mice. In both groups of mice of four animals each, only 4-5% of the administered radioactivity was measured in the combined urine and feces 24 hours after injection.

[7] = cited from earlier work
[8] = cited from earlier work; remark: listed apart in the source
[9] = tested on: M-24 metastatic melanoma cells; assay: XTT dye binding cytotoxicity assay, M-24; assay type: cell-based; conditions: Homo sapiens, M24, 72 h
Experimental: as §1, §2

U-2511 CNS cancer cells = assay: XTT dye binding cytotoxicity assay, U-2511; assay type: cell-based; conditions: Homo sapiens, 72 h
Experimental: as §1, §2

[10] = Plasma stability and prodrug reversion (ethyl acetate extraction, HPLC)
[11] = tested on: HL-60 promyelocytic leukemia cells; assay: XTT dye binding cytotoxicity assay, HL-60; assay type: cell-based; conditions: Homo sapiens, HL-60, 72 h
Experimental: as §1, §2

[12] = tested on: HMEC mammary epithelial cells; assay: XTT dye binding cytotoxicity assay, HMEC; assay type: cell-based; conditions: Homo sapiens, 72 h
Experimental: as §1, §2

[13] = tested on: HT-29 colon carcinoma cells; assay: XTT dye binding cytotoxicity assay, HT-29; assay type: cell-based; conditions: Homo sapiens, HT-29, 72 h
Experimental: as §1, §2

[14] = tested on: BT-549 breast carcinoma cells; assay: XTT dye binding cytotoxicity assay, BT-549; assay type: cell-based; conditions: Homo sapiens, BT-549, 72 h
Experimental: as §1, §2

L-1210 leukemia cells = assay: XTT dye binding cytotoxicity assay, L-1210; assay type: cell-based, mouse; conditions: Mus musculus, L1210, 72 h
Experimental: as §1, §2

[15] = tested on: CHO Chinese hamster ovary cells; assay: XTT dye binding cytotoxicity assay, CHO; assay type: cell-based; conditions: Cricetulus griseus, 72 h
Experimental: as §1, §2

[16] = cited from earlier work; remark: listed apart in the source
[17] = tested on: PC-3 prostate carcinoma cells; assay: XTT dye binding cytotoxicity assay, PC-3; assay type: cell-based; conditions: Homo sapiens, 72 h
Experimental: as §1, §2

[18] = tested on: UCLA-P3 lung carcinoma cells; assay: XTT dye binding cytotoxicity assay, UCLA-P3; assay type: cell-based; conditions: Homo sapiens, UCLA P-3, 72 h
Experimental: as §1, §2

[19] = tested on: 786-0 renal cell carcinoma cells; assay: XTT dye binding cytotoxicity assay, 786-0; assay type: cell-based; conditions: Homo sapiens, 786-0, 72 h
Experimental: as §1, §2

[20] = tested on: OVCAR-3 ovarian carcinoma cells; assay: XTT dye binding cytotoxicity assay, OVCAR-3; assay type: cell-based; conditions: Homo sapiens, OVCAR-3, 72 h
Experimental: as §1, §2

[21] = tested on: Capan 1 pancreas cancer cells; assay: XTT dye binding cytotoxicity assay, Capan 1; assay type: cell-based; conditions: Homo sapiens, CAPAN-1, 72 h
Experimental: as §1, §2

[22] = tested on: Molt-4 T-cell leukemia cells; assay: XTT dye binding cytotoxicity assay, Molt-4; assay type: cell-based; conditions: Homo sapiens, MOLT-4, 72 h
Experimental: as §1, §2

[23] = tested on: A-549 lung carcinoma cells; assay: XTT dye binding cytotoxicity assay, A-549; assay type: cell-based; conditions: Homo sapiens, A549, 72 h
Experimental: as §1, §2

SK-Mel-28 melanoma cells = assay: XTT dye binding cytotoxicity assay, SK-Mel-28; assay type: cell-based; conditions: Homo sapiens, SK-MEL-28, 72 h
Experimental: as §1, §2

[24] = Toxicity and survival in vivo (tumor bearing nude mice)
human tumor xenografts = assay: In vivo antitumor effect (human tumor xenografts in nude mice)

CC(=O)O[C@H]1C(=O)[C@@]2(C)[C@H]([C@H](OC(=O)c3ccccc3)[C@]3(O)C[C@H](OC(=O)[C@H](O)[C@@H](NC(=O)c4ccccc4)c4ccccc4)C(C)=C1C3(C)C)[C@]1(OC(C)=O)CO[C@@H]1C[C@@H]2O [Compound 1, reference compound]
IC50 [1]: 2.38 nM
IC50 [2]: 584 nM
antitumor activity, PC-3 ([3]; 1.0 mM, 400 μL i.p., established tumors): regression of established tumors
mice surviving treatment, PC-3 ([3]; in vivo): 3 out of 8 mice
Kd (intact Molt-4 cells): 5 nM
inhibition of calcium chloride induced depolymerization of microtubules (tubulin): essentially complete inhibition of depolymerization; also recorded: suppressed by taxol
50% lethality, equivalent dose ([4]; mice, four times on alternating days, approximately equivalent dose): 1,120-1,260 mg/m^2
LD50 ([4]; mouse, in vivo): 16 to 18 mg/kg
IC50 (NHDF dermal fibroblast): 765 nM
IC50 [5]: 8.89 nM
administered radioactivity in the combined urine and feces [6]: 4-5%
dose limiting toxicity ([7]; 300 mg/m^2 /day): peripheral neuropathy
tolerated taxol dose ([7]; 24 hour i.v. infusion every 3 weeks, with G-CSF): 250 mg/m^2
solubility in aqueous media [8]: low solubility
IC50 [9]: 0.018 nM
IC50 (U-2511 CNS cancer cells): 15.6 nM
Plasma Stability t1/2 ([10]; human plasma, 37° C., Table II): stable
recovery ([10]; human, plasma): 95%
IC50 [11]: 0.061 nM
IC50 [12]: 62 nM
IC50 [13]: 1.16 nM
IC50 [14]: 0.066 nM
IC50 (L-1210 leukemia cells): 3.24 nM
IC50 [15]: 615 nM
dose-limiting toxicity ([16]; pediatric patients, 24 hour i.v. infusion): neurotoxicity
dose at which dose-limiting toxicity occurred ([16]; pediatric patients, neurotoxicity): 420 mg/m^2
recommended phase II dose ([16]; pediatric population): 350 mg/m^2 /d
IC50 [17]: 1.01 nM
IC50 [18]: 0.66 nM
IC50 [19]: 10.8 nM
IC50 [20]: 0.74 nM
IC50 [21]: 0.967 nM
IC50 [22]: 0.096 nM
IC50 [23]: 5.79 nM
IC50 (SK-Mel-28 melanoma cells): 524 nM
Toxicity ([24]; Table II, in vivo): high
% survival ([24]; at end of experiments): 0-20%
in vivo tolerance / toxicity in words ([24]; nude mice): both visual toxicity and animal weight losses were observed
in vivo antitumor efficacy in words (human tumor xenografts): when taxol was administered at somewhat lower doses, its efficacy was significantly diminished
